Laboratory results from patent EP0840727B1, “3-HYDROXY-2(1H)-[…] AGENTS” (priority 1995, dated 1997).
Marks after values point to notes of the source that are not given here.

Legend:
[1] = Promoting excretion of U(VI) in mice by injected ligand; format: in vivo
Source text: (§1) Animal studies were completed using methods detailed in Radiation Protection Dosimetry, in press, P. W. Durbin et al., "In Vivo Chelation of Am(III), Pu(IV), Np(V) and U(VI) in Mice by TREN-(Me-3,2-HOPO)"; Radiation Protection Dosimetry, 17, No. 1, 1989, p. 351, P. W. Durbin et al., "Removal of ^238Pu(IV) from Mice by Polycatechoylate, -Hydroxamate or -Hydroxypyridinonate Ligands"; Radiation Research, 99, 1984, p. 85, P. W. Durbin et al., "Specific Sequestering Agents for the Actinides ..."; Radiation Research, 99, 1984, p. 106, P. W. Durbin et al., "Removal of Pu and Am from Beagles and Mice ..."; Radiation Research, 81, 1980, p. 170, R. D. Lloyd et al., and P. W. Durbin et al., "Specific Sequestering Agents for the Actinides ...". The foregoing articles are hereby incorporated by reference.
The ^232U was obtained from the Isotope Products Laboratory, Burbank, CA, and ^234,235U was obtained as U metal from long-held LBL storage. The two U sources were combined and dissolved in 6N HNO3, dried, and redissolved in 0.1 N HCl. The daughter radioactivities were removed by elution from a Dowex-50X4 column (22 cm length, 0.7 cm diameter, 1.5 mL·min^-1 flow rate) with 3.2N HCl. The U fractions (previously identified by a trial run with ^234,235U alone) were combined, dried, and redissolved in 0.14M NaCl at pH 5.5.
One of the comparative chelating agents TREN-Me-3,2-HOPO, was also tested for effectiveness in promoting excretion of ^241Am(III), ^237Np(V), and ^232U(VI) by injection into mice, as follows: Mice, in groups of five, each received an intravenous injection of (a) 1100 Bq of ^241AM(III) in 0.2 mL of citrate buffer, (b) 150 Bq of ^232UO2Cl2 plus 3.6 mg of ^235UO2Cl2 in 0.2 mL of saline, or (c) 200 Bq of ^237NpO2Cl (7.5 mg of ^237NpO2Cl) in 0.2 mL of saline. Three to five minutes later, […] of TREN-Me-3,2-HOPO was injected intraperitoneally in 0.5 mL of saline. The mice were killed 24 hours after the actinide injection, frozen, and dissected after partial thawing. The skeleton, soft tissues, and separated excreta were radioanalyzed by counting the ^241Am gamma rays, or the alpha particles emitted by ^237Np or ^232U (and its ingrowing daughters). Removal of those actinides from mice by injected TREN-Me-3,2-HOPO is summarized in Table 5, which also includes data for mice similarly treated with CaNa3-DTPA and for actinide-injected controls. […] The structure of Am(III)-TREN-Me-3,2-HOPO is considered to resemble that of the Gd(III) complexes (see example 20). Complexation of the fraction of Np(V) that is reduced in vivo to Np(IV) is considered to resemble that of Pu(IV). Complexation of U(VI) is considered to take place through binding to UO2^2+.

[2] = In vivo acute toxicity test of injected ligands in mice
Protocol: The test of acute toxicity of novel and comparative ligands was carried out as follows. Groups of five mice were each given a single i.p. injection of […] of ligand and a day for 10 days or given two i.p. injections of […] in 8 hours. The ligand was dissolved in 0.5 to 1.0 ml of saline at pH 7 to 8. After a period of observation, the mice were killed; selected tissues were removed and fixed for histopathological examination; and unusual findings at autopsy were recorded. […]

[3] = Promoting excretion of 238Pu(IV) in mice by injected ligands; format: in vivo; conditions: ligand 30 µmol kg^-1 ip at 1 h after iv ^238Pu(IV) citrate, kill at 24 h
Source text: as §1
Radionuclides used in the animal studies came from a variety of sources. However, they can be purchased commercially. The ^238Pu(IV) citrate and ^241Am(III) citrate solutions were prepared for animal injection by 8- to 10-fold dilution with 0.14M NaCl (pH 4) of concentrated stock solutions (0.08M sodium citrate buffer) that had been held in frozen storage at Lawrence Berkeley Laboratory (hereinafter LBL) for several years. [The ^238Pu(IV) was originally obtained from D. R. Atherton at the University of Utah Radiobiology Laboratory, Salt Lake City. The ^241Am(III) solution had been obtained many years earlier from the LBL Actinide Chemistry group.]
The novel chelating agents of the present invention and comparative compounds were tested for their effectiveness in promoting excretion ^238Pu(IV) in nice by injected ligands as follows. Mice, in groups of five, each received an intravenous injection of 1850 Bq ^238Pu(IV) in 0.2 mL of citrate buffer. One hour later, 30 µmol/kg of ligand was injected intraperitoneally in 0.5 mL of saline. The mice were killed 24 hours after the Pu injection, frozen, and dissected after partial thawing. The ^238Pu in skeleton, soft tissues, and separated excreta was determined by counting the ^234U L x-rays. Results of removal of ^238Pu(IV) from mice by injected ligands are summarized in Table 3, which also includes data for CaNa3-DTPA and other reference ligands and the Pu-injected controls. […] While the case of multidente 1,2-HOPO and catechoylamide chelating agents, octadentates are always better chelating agents than the corresponding hexadentates and tetradentates.

[4] = U(VI), ligand 30 mmol.kg-1 i.p at 3 to 5 min after actinide i.v., kill at 24 h
[5] = U(VI), ligand 30 mmol.kg-1 i.p at 3 to 5 min after actinide i.v., kill at 24 h, pooled
[6] = protocol I, 100 µmol kg^-1 x 10 daily i.p., study length 11 d
[7] = protocol I, 100 µmol kg^-1 x 10 daily i.p., study length 21 d
[8] = protocol II, 500 µmol kg^-1 x 2 in 8 h, study length 8 d

## Cn1ccc(C(=O)NCCN(CCNC(=O)c2ccn(C)c(=O)c2O)CCNC(=O)c2ccn(C)c(=O)c2O)c(O)c1=O [TREN-Me-3,2-HOPO, N,N,N,-Tris[(3-hydroxy-1-methyl-2-oxo-1,2-dihydropyridin-4-yl)carboxamidoethyl]-amine]
[1]; [4]
  percent of injected actinide ± SD at 24 h, tissues: kidneys: 9.4 ± 6.0^d,e percent of injected actinide
  percent of injected actinide ± SD at 24 h, tissues: skeleton: 16 ± 2.4% of injected actinide
  percent of injected actinide ± SD at 24 h, tissues: soft tissue: 1.6 ± 0.3% of injected actinide
  percent of injected actinide ± SD at 24 h, whole body: 27 ± 8.5^d,e percent of injected actinide
[1]; U(VI), ligand 30 mmol.kg-1 i.p at 3 to 5 min after actinide i.v., kill at 24 h, livers of some groups pooled
  percent of injected actinide ± SD at 24 h, tissues: liver: 0.6 ± 0.3% of injected actinide
[1]; [5]
  percent of injected actinide at 24 h, excreta: feces and GI contents: 2.3% of injected actinide
  percent of injected actinide at 24 h, excreta: urine 0-24 h: 70% of injected actinide
[1]; intraperitoneally three to five minutes after actinide
  U burden in the kidneys compared with controls (in words): more than one-half of the U burden in the kidneys was removed
[2]; even at the relatively high dosage of 2x500 µmol/kg in 8 hours
  toxicity (in words): low toxicity
[2]; [6]
  no. of survivors: 5
  percent control mean + SD: body weight: 102 ± 1 percent control
  percent control mean + SD: plasma urea N: 112 ± 10 percent control
[2]; [7]
  no. of survivors: 5
  percent control mean + SD: body weight: 106 ± 4 percent control
  percent control mean + SD: plasma urea N: 120 ± 9 percent control
[2]; [8]
  no. of survivors: 19
  percent control mean + SD: body weight: 101 ± 4 percent control
  percent control mean + SD: plasma urea N: 119 ± 15 percent control
[3]
  percent of injected ^238Pu ± SD at 24 h, tissues: liver: 5.0 ± 2.2^d percent of injected ^238Pu
  percent of injected ^238Pu ± SD at 24 h, tissues: skeleton: 10 ± 1.1% of injected ^238Pu
  percent of injected ^238Pu ± SD at 24 h, tissues: soft tissue: 2.5 ± 0.8% of injected ^238Pu
  percent of injected ^238Pu ± SD at 24 h, whole body: 18 ± 2.7^d percent of injected ^238Pu
[3]; pooled samples
  percent of injected ^238Pu at 24 h, excreta: feces and GI contents: 43.3% of injected ^238Pu
  percent of injected ^238Pu at 24 h, excreta: urine 0-24 h: 37% of injected ^238Pu
  percent of injected ^238Pu at 24 h, tissues: kidneys: 0.6% of injected ^238Pu
